Entries after “also recorded” stand apart in the source; their conditions may differ. Where two headings read alike, the source gives them in different places. Where no end group is shown, it is not given here. The star is where a group is joined. FITC = O=C1OC2(c3ccc(O)cc3Oc3cc(O)ccc32)c2ccc(NC(=S)*)cc21
Tests used:
[1] = test system: CNGB3-positive A431 cells; assay: Cell viability assay measuring ATP with KLA-HLA hybrid z13 peptides; type: cell-based, human; conditions: 37° C. 6 hours, ATP by CellTiter Glo (FIG. 8)
Experimental: FIG. 8 is a graph of luminescence versus peptide concentration in μg/ml. […] Cells were cultured in medium containing each peptide at indicated concentrations at 37° C. for 6 hours. ATP levels were measured by CellTiter Glo (Promega).
(§1) The effect of these peptides was tested using CNGB3-positive A431 cells, which was generated by transfecting A431 cells with CNGB3-Myc gene driving lenti viral vector. […] The assays used detected no difference between these two peptides. The TUNEL assay was of CNGB3-MYC expressing A431 cells after culturing in medium containing KLA-HLA-z13 for 24 hours.

[2] = test system: CNGB3-expressing HEK293T cells; assay: Cell viability assay (ATP, CellTiter Glo) in CNGB3-expressing cells; type: cell-based; conditions: 37° C. 1 hour, single peptide
Experimental: FIG. 5 is a graph of luminescence of live cells cultured in medium containing peptides on CNGB3-MYC expressing A431 cells versus peptide concentration for the four different peptide combinations: z13, dKLAK-z13, HLAH-z13, or dKLAK-z13 plus HLAH-z13. Cells were cultured in medium containing each peptide at the indicated concentrations at 37° C. for 1 hour. ATP levels were measured by CellTiter Glo (Promega). Lines represent, in order from top to bottom: z13, dKLAK-z13, HLAH-z13, and dKLAK-z13 plus HLAH-z13.
Cytotoxic activity of dKLAK-z13 was then assessed in the presence of HLAH-z13 using a cell viability assay (FIG. 5). When CNGB3-expressing HEK293T cells were cultured in medium containing z13, dKLAK-z13, or HLAH-z13 at 37° C. for 1 hour, cell viability was not affected except at high concentration of dKLAK-z13 (at 200 μg/ml) or HLAH-z13 (at 50 μg/ml). […] For this experiment, cells were cultured at 37° C. for 20 hours in medium containing no peptide; z13 (100 μg/ml); dKLAK (100 μg/ml); dKLAK-z13 (100 μg/ml); HLAH-z13 (25 μg/ml); or dKLAK-z13 (100 μg/ml) plus HLAH-z13 (25 μg/ml).

Ishikawa cells = assay: Fluorescence microscopy binding to live cells; type: cell-based, human; conditions: for fluorescence/binding of Qdot-conjugated peptide on Ishikawa cells: 100 nM
Experimental: (§2) Ishikawa cells and A431 cells were grown on glass coverslips in 3.5 cm tissue culture plates. Each phage clone including z13 was added to these cells, incubated at 4° C. for 15 min, washed with cold PBS, and fixed with 1% paraformaldehyde (PFA) in PBS. Phage was detected using rabbit anti-T7 antibody and FITC-conjugated goat anti-rabbit IgG antibody. After washing three times with PBS, cells were fixed with 1% paraformaldehyde in PBS and inspected under a Zeiss Axioplan fluorescence microscope. Ishikawa cells grown on glass coverslips were incubated in medium containing FITC-z13 peptide (1 μg/ml) at 37° C. for 15 min. After washing with PBS, cells were fixed with 1% PFA in PBS, and inspected under the fluorescence microscope. Qdot-encapsulated and C16-z13 peptide coated liposomes were prepared as described above. Ishikawa cells were incubated with these liposomes at 37° C. for 15 min, washed with PBS, fixed with 1% PFA, and inspected under the fluorescence microscope. Qdot605-conjugated peptide, Qdot-cys-z13, or control peptide, Qdot-cys-m2, was added to the culture at 100 nM and left at 37° C. for 15 min.
(§3) Ishikawa cells and A431 cells were grown on glass coverslips in 3.5-cm tissue culture plates. Ishikawa cells grown on glass coverslips were incubated in medium containing FITC-z13 peptide (1 μg/ml) at 37° C. for 15 min. After washes with PBS, cells were fixed with 1% PFA in PBS and inspected under a fluorescence microscope. Qdot-cys-z13 was prepared by conjugating cys-z13 to Qdot nanoparticles (Qdot antibody conjugation kit, Quantum Dot, Hayward, Calif.) in accordance with the manufacturer's protocol. Cells were inspected under a Zeiss Axioplan fluorescence microscope.

A431 cells = assay: Fluorescence microscopy binding to control cells; type: cell-based, human
Experimental: as §2, §3

CNGB3 [3] = molecular target: T1, CNGB3 (Homo sapiens, UniProt Q9NQW8, C234W); assay: FITC-z13 binding to HeLa cells transfected with CNGB3-MYC; type: cell-based; conditions: control empty vector
T1 construct: tissue Folio Biosciences; Imgenex; host or cells: human endometriosis tissue sections, normal uterine endometrium and normal tissue microarrays, peritoneum
T1 sequence (Q9NQW8 1-809 C234W): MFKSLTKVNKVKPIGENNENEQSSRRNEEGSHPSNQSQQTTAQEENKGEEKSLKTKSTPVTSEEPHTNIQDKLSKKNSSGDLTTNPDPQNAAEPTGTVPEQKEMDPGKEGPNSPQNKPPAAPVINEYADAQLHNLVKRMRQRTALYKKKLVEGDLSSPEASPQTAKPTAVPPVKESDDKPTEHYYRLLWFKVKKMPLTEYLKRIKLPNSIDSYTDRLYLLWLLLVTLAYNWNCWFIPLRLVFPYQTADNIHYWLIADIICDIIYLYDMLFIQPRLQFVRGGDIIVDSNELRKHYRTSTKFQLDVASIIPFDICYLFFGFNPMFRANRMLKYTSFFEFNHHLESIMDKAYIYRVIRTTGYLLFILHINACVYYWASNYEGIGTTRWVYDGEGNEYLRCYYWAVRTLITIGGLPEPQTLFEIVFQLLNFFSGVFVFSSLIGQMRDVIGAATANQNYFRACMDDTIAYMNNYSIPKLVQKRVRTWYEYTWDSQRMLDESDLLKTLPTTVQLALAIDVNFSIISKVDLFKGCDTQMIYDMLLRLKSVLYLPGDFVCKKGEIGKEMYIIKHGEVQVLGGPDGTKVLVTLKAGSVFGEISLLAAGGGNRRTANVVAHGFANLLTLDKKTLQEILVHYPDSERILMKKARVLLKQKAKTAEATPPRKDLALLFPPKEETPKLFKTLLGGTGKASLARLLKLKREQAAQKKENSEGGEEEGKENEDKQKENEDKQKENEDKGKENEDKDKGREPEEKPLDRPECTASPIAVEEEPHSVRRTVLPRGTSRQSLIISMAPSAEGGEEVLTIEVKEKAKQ
Source text: (§4) To assess binding of FITC-z13 to CNGB3, HeLa cells were transfected with a mammalian expression vector encoding a CNGB3-MYC fusion protein or with control empty vector. Fluorescence micrographs were made of HeLa cells transfected by control vector or with an expression vector encoding CNGB3-MYC.
(§5) CNGB3 cDNA was kindly provided by Dr. Hisao Ueyama, Department of Ophthalomology, Shiga University of Medical Science, Japan. cDNA encoding full-length CNGB3 was excised by HindIII and BsrGI and ligated into the HindIII and Asp718I sites of pcDNA3.1/myc-His-B vector (Invitrogen). HeLa cells were transfected with this vector, and expression of CNGB3-MYC/His fusion protein was determined by immunohistochemistry with an anti-MYC antibody and the anti-CNGB3 antibody (clone 3B2) described above. To test binding of z13 peptide to CNGB3, FITC-z13 was added (5 μg/ml) to the medium of HeLa cells transfected by the above-described vector and incubated at 37° C. for 15 min. Cells were washed with PBS, fixed with 4% PFA in PBS, and observed under a fluorescence microscope.

CNGB3 [4] = molecular target: T2, CNGB3 (Homo sapiens, UniProt Q9NQW8); assay: as above; type: cell-based; conditions: 5 μg/ml, 37° C. 15 min
T2 construct: tissue Folio Biosciences; Imgenex; host or cells: human endometriosis tissue sections, normal uterine endometrium and normal tissue microarrays, peritoneum
T2 sequence (Q9NQW8 1-809 C234W): T1 sequence (Q9NQW8 1-809 C234W)
Source text: as §4, §5

[5] = test system: CNGB3-MYC expressing A431 cells; assay: TUNEL assay with KLA-HLA hybrid z13 peptides; type: cell-based, human; conditions: 24 hours in medium containing peptide
Experimental: as §1

[6] = test system: CNGB3-Myc cDNA-transfected HEK293T cells; assay: Apoptosis (TUNEL) of CNGB3-Myc transfected HEK293T cells; type: cell-based; conditions: peptide alone added to culture medium
Source text: (§6) It was realized that this lack of effect could be due to the fact that receptor-bound dKLAK-z13 localizes to the luminal side of endosomes, a prediction supported by the endosome-like pattern of fluorescent z13. To release dKLAK-z13 from the endosomes to the cytoplasm, an endosome-escaping 18-mer peptide HLAHLAHHLAHLAHHLAH (SEQ ID NO:38; here abbreviated as HLAH) was devised by replacing lysines in KLAKLAK (SEQ ID NO:39) with histidines, to provide histidine-rich sequences capable of destabilizing endosome membranes at acidic pH (Midoux et al., 2002; Pichon et al., 2001). […] For this experiment, biotin-z13 was bound to CNGB3-MYC expressing HEK293T cells at 37° C. for 30 min with or without HLAH-z13. Cells were stained by Alexa 488-conjugated avidin followed by DAPI nuclear staining.
Each peptide was dissolved in dimethylsulfoxide at 100 μg/μl. Each peptide was added to the medium of cells, and the cells were cultured at 37° C. for 20 hours. Apoptosis of CNGB3-Myc cDNA-transfected HEK293T cells was determined by TUNEL assay using the ApopTag immunoperoxidase kit (Chemicon, Temecula, Calif.).

[7] = test system: CNGB3-MYC expressing HEK293T cells; assay: Endosome escape of biotin-z13 in CNGB3-MYC expressing HEK293T cells; type: cell-based; conditions: 37° C. 30 min
Source text: as §6

mammalian cell = conditions: not coupled to a targeting domain; cited from earlier work

HLAHLAHHLAHLAHKLAKLAKKLAKLAKVRRADNRPG [HLA-KLA-z13]
apoptosis / loss of viability of CNGB3-positive A431 cells [1]: induced apoptosis

VRRADNRPG [z13]
cell viability [2]: not affected
cellular localization of z13 in Ishikawa cells (Ishikawa cells; punctuate cytoplasmic staining pattern in micrographs): internalized to endosomes

FITC-z13: synthetic fluorescence-tagged z13 peptide whose amino-terminus was conjugated ({FITC}-VRRADNRPG)
binding of FITC-tagged z13 peptide to A431 cells (A431 cells): did not show fluorescence
binding of FITC-tagged z13 peptide to A431 cells (A431 cells; listed as z13 peptide with an N-terminal FITC-tag): not
binding of FITC-tagged z13 peptide to Ishikawa cells (Ishikawa cells; 1 μg/ml, 37° C. 15 min): bound
binding to vector-transfected control HeLa cells (CNGB3 [3]): did not bind
binding to CNGB3-MYC-expressing HeLa cells (CNGB3 [4]): bound to sites marked by MYC-epitope expression

KLAKLAKKLAKLAKHLAHLAHHLAHLAHVRRADNRPG [KLA-HLA-z13]
frequency of TUNEL-positive cells [5]: dose-dependent increase in the frequency of TUNEL-positive cells
apoptosis / loss of viability of CNGB3-positive A431 cells [1]: induced apoptosis

KLAKLAKKLAKLAKKLAKVRRADNRPG [dKLAK-z13]
high concentration at which cell viability was affected (otherwise not affected) [2]: 200 µg/mL
induction of apoptosis in CNGB3-expressing cells [6]: apoptosis was not induced; also recorded: did not induce apoptosis

HLAHLAHHLAHLAHHLAHVRRADNRPG (HLAHLAHHLAHLAHHLAHVRRAXNXPG; (23)..(23) Xaa can be any naturally occurring amino acid; (25)..(25) Xaa can be any naturally occurring amino acid) [HLAH-z13]
high concentration at which cell viability was affected (otherwise not affected) [2]: 50 µg/mL
endosome-escaping activity (release of biotin-z13 from endosomes to cytoplasm) [7]: promotes endosome-escaping activity

(KLAKLAK)2 (KLAKLAKKLAKLAK) [mitochondriotoxic pro-apoptotic peptide (PAP)]
mammalian cell cytotoxicity of the peptide by itself (mammalian cell): low mammalian cell cytotoxicity

Qdot-cys-z13: synthetic cys-z13 peptide CVRRADNRPG conjugated to fluorescent nanocrystal Qdot605 (also: conjugated to Qdot605 nanocrystal)
binding of Qdot-conjugated peptide to A431 cells (A431 cells): not
fluorescence/binding of Qdot-conjugated peptide on Ishikawa cells (Ishikawa cells; 37° C. 15 min): strong fluorescence
fluorescence/binding of Qdot-conjugated peptide on Ishikawa cells (Ishikawa cells; 37° C. 15 min, listed as Qdot-z13): bound
